{
  "source": "patent US8680076B2",
  "about": "“Methods of treatment, improvement and prevention using haloaryl substituted aminopurines” (Signal Pharmaceuticals, LLC, priority 2010, dated 2014)",
  "key": {"[1]": {"system": "SKH-1 mice epidermis", "assay": "UVB-induced apoptosis (TUNEL) in skin of SKH-1 mice", "format": "in vivo, mouse", "conditions": "75 mg/kg PO BID for 5 days before UVB 0.5 J/cm^2, vs vehicle", "from_the_text": "Ultraviolet B (UVB) light is known to induce breaks in DNA (nicks) that can trigger the process of apoptosis, and these nicks can be labeled and visualized with terminal deoxynucleotidyl transferase dUTP nick end labeling (TUNEL). TUNEL technology identifies DNA breaks by labeling free 3′-OH terminals with modified (fluorescing) nucleotides in an enzymatic reaction that makes the damaged apoptotic cells fluoresce. This study was one of a series of pharmacology studies designed to determine the effects of the JNK inhibitor, Compound JNKi-1, on UVB-induced apoptosis in the skin of mice.\nFemale SKH-1 mice (Charles River, n=17 total) were obtained at a body weight of 15 g to 20 g. Mice were housed in regular shoebox cages and allowed to become acclimated for a minimum of 1 week. Mice were fed Harlan Teklad (No. 7001) 4% mouse/rat diet and water ad libitum and were maintained on a 12-hour light/dark cycle. […]\nA Leica microscope with a CoolSNAP digital camera was used to obtain 5 random 20× magnification fluorescent images from five sections of skin epidermis and the number of TUNEL-positive green cells was counted to determine the average number of cells per animal and group (n=5).\nStatistical one-way analysis of variance (ANOVA) was performed followed by Bonferroni's multiple comparison test (Graph Pad Prism). The data were expressed as mean±standard error of the mean (SEM)."}, "[2]": {"system": "phosphorylation of the JNK target cJun in dermal SSc-fibroblasts", "assay": "Western Blot analysis of c-Jun phosphorylation in TGF-β/PDGF-stimulated cultured dermal fibroblasts", "format": "cell-based, human", "conditions": "pre-incubation with compound", "experimental": "To analyze whether the JNK pathway was activated by TGF-β and PDGF, Western Blot analysis for c-Jun in cultured dermal fibroblasts was performed.\nAfter rinsing twice with PBS, the dermal fibroblasts were trypsinized and lysed with Laemmli Buffer. Five μg of protein from each sample were separated by 10% SDS-PAGE and electrotransferred onto polyvinylidene difluoride (PVDF) membranes according to standard protocols (Distler J H, Jungel A, Kowal-Bielecka O, Michel B A, Gay R E, Sprott H, et al. Expression of interleukin-21 receptor in epidermis from patients with systemic sclerosis. Arthritis Rheum. 2005; 52(3):856-64). Immunoblots were incubated with monoclonal antibodies against c-Jun and phospho-c-Jun (Santa Cruz, Heidelberg, Germany) at a dilution of 1:200 overnight at 4° C. After incubation with horseradish peroxidase-conjugated rabbit anti-mouse antibodies (Dako, Hamburg, Germany) for 1 hour at a dilution of 1:2000, signals were detected with ECL Western Blotting Detection Reagents (Amersham Bioscience, Freiburg, Germany). For confirmation of equal loading of proteins, the amount of β-actin was determined using mouse anti-human β-actin antibodies (Sigma-Aldrich, Munich, Germany; dilution 1:10000)."}, "[3]": {"system": "Tsk-1 mice", "assay": "Tight skin-1 (Tsk-1) mouse model of systemic sclerosis", "format": "in vivo", "conditions": "for decrease of number of myofibroblasts / reduction of hypodermal thickening: 6 weeks; for reduction of hypodermal thickening: compared to untreated mice", "experimental": "The antifibrotic effects of the JNK inhibitor Compound JNKi-1 were tested in a murine tight skin-1 (Tsk-1) model of systemic sclerosis. In this model, a dominant mutation in the fibrillin 1 gene (Fbn1^Tsk+/−) leads to a systemic sclerosis-like disease with inflammatory infiltrates and massive fibrosis of the skin (Akhmetshina A, Venalis P, Dees C, Busch N, Zwerina J, Schett G, et al., Treatment with imatinib prevents fibrosis in different preclinical models of systemic sclerosis and induces regression of established fibrosis, Arthritis Rheum. 2009; 60(1):219-24).\nMale and female TSK-1 mice were used. Mice were fed a standard diet with water ad libitum. The room temperature was kept constant at 22° C. with a humidity of 60%.\nCompound JNKi-1 was dissolved in 0.5% carboxymethylcellulose (CMC)/0.25% Tween 80 in water. As vehicle control a solution of 0.5% CMC/0.25% Tween 80 in water was used. Imatinib mesylate was dissolved in 0.9% NaCl at a concentration of 50 mg/kg/day in a total volume of 100 μL.\nGroups of Tsk-1 mice (n=4/sex/group) were assigned to one of five treatment groups: • Untreated wildtype (Fbn1^Tsk−/−) group received 0.5% CMC/0.25% Tween 80 in water orally (PO) twice daily (BID). • Untreated Fbn1Tsk+/− mice received 0.5% CMC/0.25% Tween 80 in water orally BID. • Compound JNKi-1-treated Fbn1^Tsk+/− received 50 mg/kg orally BID. • Compound JNKi-1-treated Fbn1^Tsk+/− received 150 mg/kg orally BID. • Imatinib mesylate-treated Fbn1^Tsk+/− group received 50 mg/kg/day administered intraperitoneally (IP).\nTreatments with Compound JNKi-1 and control compound were started at Week 4. After 6 weeks of treatment, mice were sacrificed, and the antifibrotic effects from each treatment were analyzed.\nAntifibrotic effects were determined by measuring the dermal thickness and quantifying the numbers of myofibroblasts in the lesional skin. Dermal thickness was determined by measuring the distance from the epidermal/dermal border to the dermal/subdermal border in H & E-stained sections at four different sites. The number of myofibroblasts was quantified by staining for alpha smooth muscle actin (α-SMA) in paraffin-embedded sections. Data are expressed as mean±standard error of the mean (SEM). SPSS17.0 software and the Mann-Whitney-U-test were used for statistical analyses. A p-value of less than 0.05 was considered statistically significant."}},
  "note": "“Also recorded” adds a separate entry of the source.",
  "data": [
    {"smiles": "O[C@H]1CC[C@H](Nc2ncc3nc(Nc4c(F)cc(F)cc4F)n([C@H]4CCOC4)c3n2)CC1", "note": "[JNKi-1, 4-((9-((3S)-tetrahydro-3-furanyl)-8-((2,4,6-trifluorophenyl)amino)-9H-purin-2-yl)amino)-trans-cyclohexanol]", "values": [
      {"measurement": "number of TUNEL-positive cells in epidermis 24 hr post UV exposure", "setting": "[1]", "result": "can inhibit apoptotic cell death; also recorded: significantly (p<0.01) decreased"},
      {"measurement": "stimulatory effect of PDGF on c-Jun phosphorylation", "setting": "[2]", "result": "completely prevented"},
      {"measurement": "stimulatory effects of TGF-β and PDGF on the phosphorylation of c-Jun", "setting": "[2]", "result": "reduced the stimulatory effects"},
      {"measurement": "decrease of number of myofibroblasts", "setting": "[3]; 50 mg/kg orally BID", "result": "68%±28%"},
      {"measurement": "reduction of hypodermal thickening", "setting": "[3]; 50 mg/kg orally BID", "result": "67%±5%"},
      {"measurement": "decrease of number of myofibroblasts", "setting": "[3]; 150 mg/kg orally BID", "result": "99%±9%"},
      {"measurement": "reduction of hypodermal thickening", "setting": "[3]; 150 mg/kg orally BID", "result": "85%±7%"},
      {"measurement": "hypodermal thickening / myofibroblast counts (in words)", "setting": "[3]; 50 and 150 mg/kg orally BID", "result": "dose dependently reduced; also recorded: more pronounced; also recorded: dose-dependently reduce"}
    ]}
  ]
}
